This assay relates to Pseudomonas aeruginosa. Nature of the assay: Test for determining the reduction of Pseudomonas aeruginosa according to EN 1276. The note with it: for reduction of Pseudomonas aeruginosa (antibacterial effect): EN 1276. The format is cell-based. The method, then: The washing agent was used in a test for determining the reduction of Pseudomonas aeruginosa according to EN 1276. The obtained value served as a reference. 0.10 wt. % GLDA or 0.50 wt. % were then added to the washing agent and likewise used in the test for determining the reduction of Pseudomonas aeruginosa according to EN 1276. The all-purpose cleaner was used in a test for determining the reduction of Pseudomonas aeruginosa according to EN 1276. The obtained value served as a reference. 0.10 wt. % GLDA or 0.50 wt. % were then added to the all-purpose cleaner and likewise used in the test for determining the reduction of Pseudomonas aeruginosa according to EN 1276.

Take `O=C(O)CC[C@@H](C(=O)O)N(CC(=O)O)CC(=O)O` [Glutamic acid diacetic acid (GLDA), glutamic acid-N,N-diacetic acid]: the “reduction of Pseudomonas aeruginosa (antibacterial effect)” value turned out to be 7.65E+00 (Table 1, Example 1, concentration glutamic acid diacetic acid 0.10% (according to the invention)); 6.90E+01 (Table 1, Example 1, concentration glutamic acid diacetic acid 0.50% (according to the invention)); 7.65E+00 (Table 2, Example 2, concentration glutamic acid diacetic acid 0.10% (according to the invention)); 6.90E+01 (Table 2, Example 2, concentration glutamic acid diacetic acid 0.50% (according to the invention)). In addition, the “antimicrobial / antibacterial effect (in words)” value (substance on its own (GLDA itself; agent exclusively comprising QAC)) is on record as “does not have an antimicrobial effect”.

Values taken from patent US10487291B2, “Detergent or cleaning agent having GLDA-enhanced antimicrobial effect” (Henkel AG & Co. KGaA, priority 2016, dated 2019).
